Paper PMC2862740, “Furin Targeted Drug Delivery for Treatment of Rhabdomyosarcoma in a Mouse Model” (PLoS ONE, 2010)
Positions of bridges follow the written chain, without caps; N, C: chain ends. No end group written: not given here. *: point of attachment. FITC = O=C1OC2(c3ccc(O)cc3Oc3cc(O)ccc32)c2ccc(NC(=S)*)cc21

Assays:
RD xenografts = experiment: targeted doxorubicin treatment of RD xenografts
Description: Five groups of 6 mice were treated when tumors reached 60 mm^3 in size. Treatment consisted of weekly tail vein injections for 30 days.
CD1-Nu/nu mice (4 to 6 weeks old, Charles River, Germany) were used for the in vivo screening, and 6 weeks old NOD/SCID IL2R γ-/- mice were used for all other studies. RMS cells (5×10^6 in 150 µl HBSS) were injected subcutaneously into the dorsolateral flank of the mice. Both diameters (d) of the spherical tumors were measured twice weekly and the volume was calculated with the general formula V = (4/3) πr^3, whereby r = (d1+d2)/4. Prior to the experiment, mice were anesthetized with 0.015 ml/g avertin by i.p. injection. 1 mg/ml of FITC-peptide in 250 µl PBS was injected by tail vein injection into mice bearing tumors 150 mm^3 in size. After 10 minutes circulation, mice were perfused, tumor and control organs were dissected and frozen in O.C.T. embedding medium (Leica Microsystems, Germany). 10 µm cryosections were washed with PBS, fixed for 15 minutes in ice-cold methanol and air-dried. Endothelial stainings were performed using rat monoclonal antibodies against mouse markers CD31 and MECA-32, both at the dilution of 1∶50 (BD biosciences, Switzerland). A rabbit polyclonal anti-furin-antibody (Abcam) was used at a dilution of 1∶1500. All corresponding secondary antibodies were AlexaFluor594-labeled IgGs (1∶300, Invitrogen).
Mice with size-matched tumors (∼60 mm^3) were randomized into five groups and injected once per week for 4 consecutive weeks. […] Control groups received either a mixture of 10 µg free doxorubicin and peptide RMS-P3/RR, an equimolar solution of peptide RMS-P-3/RR alone or PBS alone. Concentrations were confirmed by measuring the absorbance of conjugated doxorubicin at 490 nm. […] Mice were monitored for weight and tumor growth for 30 days.

RD cells [1] = experiment: competition of phage RMS-P3 binding by synthetic peptide; format: cell-based; conditions: for regression slope b of phage RMS-P3 binding versus peptide concentration: least-squares regression, N = 18, RMS-P3 r^2 = 0.889, p<0.0001, control r^2 = 0.0002, p = 0.959
Description: Figure 1 Validation of selected phages binding on RMS cells in vivo and in vitro. (A) Quantification of binding of single phage clones to different cell lines. Six phages selected from in vitro and in vivo screenings were validated individually in binding assays to three RMS cell lines (embryonal RMS: RD; alveolar RMS: Rh30 and Rh4) as well as to normal myoblasts (SkMC-c) and fibroblast cells (MRC-5). Phage clones are ordered according to the frequency of occurrence. Binding was calculated over non-recombinant T7, depicted are mean values ± SD of three independent experiments. (B) RMS-P3 and RMS-P6 phage distribution in RD mouse xenografts. Homing of phages to tumor was compared to control organs. Binding was normalized over phage T7 and tissue weight. Mean values ± SD of four independent experiments are shown. Numerical values for tumor to organ ratios are indicated above the bars. (C) Validation of RMS-P3 peptide sequence by competition of phage binding. 10^6 RD cells were incubated for 30 min with increasing concentrations of RMS-P3 peptide ([…]) or control peptide ([…]). Then, phages (10^9 pfu) were added for 1 h. Phage binding was normalized over non-recombinant T7. Data are presented as percentage of maximal phage binding obtained in the absence of synthetic peptide. Error bars indicate mean ± SD from three independent experiments. […] TEXT PRINTED IN THE PICTURE: (B) RMS-P6: tumor: 1; muscle: 1/6; kidney: 1/8; brain: 1/28; skin: 1/12 | (B) RMS-P3: tumor: 1; muscle: 1/24; kidney: 1/15; brain: 1/12; skin: 1/10 DOUBTS OF THE COPYIST ABOUT THIS PICTURE: Panel B: the picture prints no measure for the numbers over the bars. Each tissue name was assigned from the bar fill and the order of the printed key. / RMS-P6, brain: 1/28, the last digit may be 8 or 6 (small print)
(§1) 10^6 RD cells were detached (2.5 mM EDTA-PBS) and reconstituted (DMEM/1% BSA). Cells were preincubated with 100 µl of peptides (RMS-P3 or RMS-Pctrl) or general PC inhibitor decanoyl-Arg-Val-Lys-Arg-chloromethylketone (Dec-RVKR-cmk, Calbiochem, Switzerland) for 30 minutes. Phages (10^9 pfu) were added for 1 hour at RT under continuous rotation. Cells were washed four times with DMEM/1% BSA; titer of bound phage was determined by titration with BLT5403 and calculated over non-recombinant T7.

[2] = tested on: RD xenograft tumors and control organs; experiment: FITC-peptide distribution in xenograft mice; format: in vivo, mouse; conditions: RD xenografts, i.v.
Description: Figure 2 FITC-labeled RMS-P3 binding in vitro and distribution in vivo. (A) Visualization of FITC-RMS-P3 peptide binding in normal and cancer cells in vitro. Cultured myoblasts (SkMC-c), fibroblasts (MRC-5), RMS cells (RD) and breast carcinoma cells (MDA-MB 231) were incubated with 100 nM FITC-RMS-P3 peptide for 1 h at 37°C. Fluorescence microscopy of fixed cells is shown. (B) Living RD cells were incubated with FITC-RMS-P3 peptide, subsequently fixed and stained with giantin (red). Colocalization is shown in the merged picture by yellow. Blue staining (DAPI) indicates the nuclei. Magnifications: 40x, scale bars: 20 µm. (C) Distribution of FITC-RMS-P3 and control peptide FITC-RMS-Pctrl in mice xenografts of RD cells. FITC-RMS-P3 or control FITC-RMS-Pctrl peptide were injected i.v. and after 10 minutes of circulation, mice were perfused and tumor and control organs were collected. Cryosections were double-labeled with mouse endothelial vessels markers CD31 and MECA-32 (red). Nuclear staining by DAPI is shown in blue. Magnifications: 40x, scale bars: 20 µm.
Figure 3 Identification of the receptor for RMS-P3. (A) Alanine-scan of the RMS-P3 sequence. RMS-P3 was mutated by replacing each amino acid residue with alanine (codon GCT). All phage mutants were tested individually for binding to RD cells in vitro. Mutated residues are indicated in bold. Phage binding was quantified over non-recombinant T7 and compared to the binding of wild type phage RMS-P3. Depicted are mean values ± SD of three independent experiments. […] (B) FITC-RMS-P3/RR and FITC-RMS-P3/AA distribution in RD xenograft mice. After tail vein injection of both FITC-RMS-P3/RR or control peptide RMS-P3/AA and circulation of 10 min, mice were perfused, tumors and control organs were dissected and FITC-peptide distribution (green) was evaluated in cryosections under fluorescence microscopy. Blood endothelial stainings (CD31 and MECA32) are shown in red, nuclear staining in blue (DAPI). Magnification: 20x, scale bar 50 µm. (C) Expression of proprotein convertases (PCs) measured by microarray profiling of 9 RMS cell lines and 30 RMS biopsy samples. Expression of PCs recognizing the cleavage site R(X)(R/K)(R/K) were considered. Each cell line or biopsy is represented by one data point. (D) Furin expression in different cell lines. Normal myoblasts (SkMC-c), fibroblasts (MRC-5), RMS cell lines (RD, Rh4, Rh30), furin-deficient colorectal carcinoma cells (LoVo) and furin-positive breast carcinoma cells (MBA-MB 231) were tested for furin expression by qRT-PCR (upper graph). […] Western blot (lower panels). Immature membrane-bound furin was detected at 103 kD, mature furin at 97 kD. PCNA was used as loading control.
Figure 6 FITC-RMS-P3/RR and FITC-RMS-P3/AA distribution in mice bearing RD xenografts. Peptides were injected i.v. and after circulation the mice were perfused, tumors and control organs were removed and peptide distribution was evaluated on cryosections by fluorescence microscopy. Depicted are overlay images (B, upper left panel) and single channel pictures. FITC-peptide stainings (green), either furin or endothelial stainings (CD31, MECA32) in red and cell nuclei in blue (DAPI) are shown. Magnification: 40x, scale bars 50 µm.
Supplementary file pone.0010445.s002.tif: Figure S2 Subcellular localization of FITC-RMS-P3 peptide. (A, B) FITC-RMS-P3/RR cell surface and intracellular localization. RD cells were incubated with 100 nM FITC-RMS-P3 peptide in vitro for 30 min at 4°C (A) or 37°C (B), respectively. Fixed cells were stained with undiluted 5.1H11 hybridoma supernatant against the human muscle-specific cell surface antigen N-CAM (red). A secondary rabbit anti-mouse Cy3 antibody (1∶300, Invitrogen) was used for detection. […] Cell nuclei were visualized with DAPI. Nuclei are indicated in grey. Magnification: 63x, scale bars: 20 µm. […]

MRC-5-FUR cells = experiment: FITC-RMS-P3/RR binding to furin-transfected fibroblasts; format: cell-based; conditions: 100 nM, 1h at RT
Description: Figure 4 RMS-P3/RR phage binding correlates with furin expression levels. (A) Binding of phage RMS-P3/RR to untransfected (MRC-5), furin-overexpressing (MRC-FUR) and empty vector transfected MRC-5 fibroblasts (MRC-EV) was tested in vitro. Phage binding was quantified over control T7. Results of three independent experiments ± SD are shown. Western blot of the same samples for furin expression and PCNA as loading control (A, lower panels) (B) Micrographs of MRC-5 fibroblasts (upper row) and MRC-5-FUR (lower row) cells incubated with 100 nM FITC-RMS-P3/RR (green) for 1h at RT, fixed and stained with the anti-furin-antibody Mon-152 (red). Nuclei are visualized by DAPI staining (blue). Yellow indicates overlap of the two stainings. Magnification: 40x; scale bars: 20 µm. (C) Inhibition of furin maturation in α1-PDX-transfected RD cells reduces phage binding. Phage RMS-P3/RR binding to untransfected RD, furin-inhibited RD-PDX and empty-vector transfected RD-EV cells was determined over non-recombinant T7 in three independent experiments (means ± SD). Expression of the inhibitor α1-PDX was confirmed by western blotting using 100 µg cell extract with antiserum against α1AT (C, lower panels). (D) Effect of the specific PC-inhibitor Dec-RVKR-cmk on phage RMS-P3/RR binding. […] Phage binding was calculated over T7. […]

RD cells [3] = experiment: competition of phage RMS-P3/RR binding by Dec-RVKR-cmk; format: cell-based
Description: Figure 4 RMS-P3/RR phage binding correlates with furin expression levels. (A) Binding of phage RMS-P3/RR to untransfected (MRC-5), furin-overexpressing (MRC-FUR) and empty vector transfected MRC-5 fibroblasts (MRC-EV) was tested in vitro. Phage binding was quantified over control T7. Results of three independent experiments ± SD are shown. Western blot of the same samples for furin expression and PCNA as loading control (A, lower panels) (B) Micrographs of MRC-5 fibroblasts (upper row) and MRC-5-FUR (lower row) cells incubated with 100 nM FITC-RMS-P3/RR (green) for 1h at RT, fixed and stained with the anti-furin-antibody Mon-152 (red). Nuclei are visualized by DAPI staining (blue). Yellow indicates overlap of the two stainings. Magnification: 40x; scale bars: 20 µm. (C) Inhibition of furin maturation in α1-PDX-transfected RD cells reduces phage binding. Phage RMS-P3/RR binding to untransfected RD, furin-inhibited RD-PDX and empty-vector transfected RD-EV cells was determined over non-recombinant T7 in three independent experiments (means ± SD). Expression of the inhibitor α1-PDX was confirmed by western blotting using 100 µg cell extract with antiserum against α1AT (C, lower panels). (D) Effect of the specific PC-inhibitor Dec-RVKR-cmk on phage RMS-P3/RR binding. Competition was performed with increasing concentrations of Dec-RVKR-cmk and constant amounts of phage (10^9 pfu). Phage binding was calculated over T7.
as §1

In the case of “Doxorubicin-succinyl-GG-CMGTINTRTRRC (disulfide) [Dox-RMS-P3/RR]”, the “tumor size compared to Dox alone, Dox and peptide, peptide alone or vehicle” value (RD xenografts; 10 µg doxorubicin equivalent/week i.v., student's t-test, p<0.05) is reported as “significantly smaller”, the “increase in therapeutic efficacy compared to doxorubicin treatment alone” value (RD xenografts; RMS in mice) is reported as “two-fold” and the “delay in tumor growth compared to untargeted drug delivery” value (RD xenografts; weekly tail vein injections, 30 days) is reported as “significant delay in tumor growth”.
“CSPNNTRRPNKC (disulfide 1-12 (inferred)) [RMS-Pctrl]” was tested, and the “effect on phage RMS-P3 binding” value (RD cells [1]; increasing peptide concentrations) was “no effect” and the “regression slope b of phage RMS-P3 binding versus peptide concentration” value (RD cells [1]) was 0.055.
For “CMGTINTRTKKC (disulfide 1-12 (inferred)) [RMS-P3]”, the IC50 (RD cells [1]; RD cells, 10^6, peptide preincubated 30 min, then phage 10^9 pfu 1 h at RT, three independent experiments, read-out: Half-maximal inhibition (IC50) of phage RMS-P3 binding) was about 100 nM, the “regression slope b of phage RMS-P3 binding versus peptide concentration” value (RD cells [1]) was −17.5 and the “phage RMS-P3 binding remaining” value (RD cells [1]; peptide at highest concentration tested (10 µM), percentage of maximal phage binding) was 7.5%.
With “FITC-RMS-P3/RR ({FITC}-GGCMGTINTRTRRC; also: cyclic peptide, ring type and places not given here)” the “peptide distribution to muscle” value ([2]; 10 min circulation) was “not in control organs”, the “peptide uptake in kidney” value ([2]; 10 min circulation) was “not in control organs” and the “peptide accumulation in tumor” value ([2]; 10 min circulation, cryosections) was “Accumulation”. For the same substance, the “peptide accumulation in tumor” value ([2]; 10 min circulation, cryosections, listed as FITC-labeled RMS-P3/RR) was “strong peptide fluorescence”, the “colocalization with furin around blood vessels in tumor” value ([2]; cryosections) was “furin colocalized with peptide RMS-P3/RR fluorescence” and the “penetration into the tumor” value ([2]; around blood vessels, cryosections) was “about 30 µm”. The “colocalization of furin and FITC-peptide” value (MRC-5-FUR cells; anti-furin-antibody Mon-152) was “clear colocalization” and the “FITC-peptide binding to MRC-5-FUR cells” value (MRC-5-FUR cells; in contrast to untransfected cells) was “strong peptide binding”.
With “decanoyl-Arg-Val-Lys-Arg-chloromethylketone [Dec-RVKR-cmk]” the “phage RMS-P3/RR binding in presence of inhibitor” value (RD cells [3]; 1 µM Dec-RVKR-cmk, RD cells, 30 min preincubation, phage 10^9 pfu 1 h) was “half-maximal”, the “effect on binding of control phage RMS-P3/AA” value (RD cells [3]; Dec-RVKR-cmk, RD cells) was “remained unaffected” and the “regression slope b of phage RMS-P3/RR binding versus Dec-RVKR-cmk concentration” value (RD cells [3]; least-squares regression, N = 18, r^2 = 0.883, p<0.0001) was −17.9.
